{"source": "patent US20130136724A1", "about": "“PIG FEED, AND METHOD FOR FEEDING SAME” (Kaneka Corporation, priority 2010, published 2013)", "assay_type_in_all_cases": "in vivo, swine", "key": {"[1]": {"experiment": "Coenzyme Q10 content in colostrum of mother sows by HPLC (Example 1)", "details": "colostrum (first day) of mother sows, 60 ppm in feed, vs periods without administration", "description": "About 160 mother sows from an actual swine farm were used and the study group was fed with feeds (coenzyme Q content in all feeds: 60 ppm) which were prepared by mixing coenzyme Q10 in normal feeds for mother sows (“ecobreed” during pregnancy, “ecolitter” during lactation). This feed test continued for eight months in which feeding to all the mother sows was simultaneously started and simultaneously finished. Before and after the test period, only the original feeds for mother sows were fed. […] Additionally, in order to analyze the coenzyme Q10 content in milk of mother sows during lactation, about 15 ml of colostrum (first day) were sampled in a 50-ml disposal tube from six mother sows during lactation in the periods in which coenzyme Q10 was administered to them or the periods in which coenzyme Q10 was not administered to them, and the samples were analyzed for coenzyme Q10 and the ratio of the reduced form and the oxidized form of coenzyme Q10 by HPLC."}, "mother sows [2]": {"tested_on": "mother sows", "experiment": "Feed test in mother sows, coenzyme Q10 60 ppm in feeds for eight months (Example 1)", "description": "About 160 mother sows from an actual swine farm were used and the study group was fed with feeds (coenzyme Q content in all feeds: 60 ppm) which were prepared by mixing coenzyme Q10 in normal feeds for mother sows (“ecobreed” during pregnancy, “ecolitter” during lactation). This feed test continued for eight months in which feeding to all the mother sows was simultaneously started and simultaneously finished. Before and after the test period, only the original feeds for mother sows were fed. In this test of feeding to the sows at pregnancy period, as the pregnancy period of sows continues 114 days and the interval to the next conception after parturition is about 31 days, it is apparent that in this test, coenzyme Q10 was administered to the mother sows in various stages of pregnancy or lactation which include a specific period in latter pregnancy, the entire pregnancy period, periods prior to or after mating, and a period from mating to early pregnancy. The mother sows were reared and managed in a common manner. In order to confirm that coenzyme Q10 was mixed in the feeds for mother sows, about 100 g of each coenzyme Q10-containing test feed were sampled from three points of different feeders after one week from the preparation thereof in the test period and the each sample was analyzed."}, "piglets": {"tested_on": "piglets", "experiment": "Feeding coenzyme Q10 to piglets of coenzyme Q10-fed mother sows through weaning, piglet and fattening periods (Example 2)", "details": "piglets fed about 80 ppm in weaning period feed, vs control group", "text": "The piglets of the mother sows to which coenzyme Q10 had been administered in the test of Example 1 were fed with the following feeds: a feed prepared by adding coenzyme Q10 at about 80 ppm to a normal feed (“Healthy Pig” (registered trademark)) for the weaning period; and feeds prepared by adding coenzyme Q10 at 40 ppm to normal feeds (“Take Five” for the former half of the piglet period, “Nobita kun” for the latter half of the piglet period, and “NIC Niku Buta EX” for the fattening period). The piglets were reared and managed in a common manner. In all the periods, control groups were set up for each to which coenzyme Q10 was not administered, and the control group was also reared in a common manner.\nThe “weaning period” refers to the period from the 3rd day until 26th day after birth, and the “piglet period” refers to the period from the 27th day until the 84th day after birth."}, "mother sows [3]": {"tested_on": "mother sows", "experiment": "Fertility of second mating of coenzyme Q10-fed mother sows (Example 5)", "details": "100 ppm in feed, four months, pregnancy determined on the 28th day after second mating", "description": "A coenzyme Q10-fed test group was fed with a feed prepared by adding coenzyme Q10 at a concentration of 100 ppm to a normal feed for mother sows (Kvodo Shiryo Co., Ltd.) for a test period (four months). A control group was fed with only the normal feed for mother sows. The sows were tested for pregnancy on the 28th day after mating, and unfertilized sows were mated again. The fertility was evaluated as a pregnancy rate for three months from one month after the start of the test until the end of the test. Whether the sows were pregnant (fertilized) was determined by sonography or the like on the 28th day after first mating and second mating. The test group consisted of 952 mother sows, and the control group consisted of 992 mother sows."}, "mother sows [4]": {"tested_on": "mother sows", "experiment": "Interval of recurrent estrous of coenzyme Q10-fed mother sows (Example 6)", "details": "100 ppm in feed", "description": "A coenzyme Q10-fed test group was fed with a feed prepared by adding coenzyme Q10 at a concentration of 100 ppm to a normal feed for mother sows (Kyodo Shiryo Co., Ltd.) for a test period (four months). A control group was fed with only the normal feed for mother sows. Estrous cycles were evaluated by observing whether sows were in estrus for three months from one month after the start of the test until the end of the test. The test group consisted of 1055 mother sows, and the control group consisted of 1022 sows."}, "mother sows [5]": {"tested_on": "mother sows", "experiment": "Coenzyme Q10 fed to mother sows in early, middle or latter pregnancy, farrowing rate and number of weaned piglets (Example 4)", "details": "for Number of weaned piglets (average per mother sow): 100 ppm in feed of mother sows", "text": "Test groups E to G were fed with a feed prepared by adding coenzyme Q10 at a concentration of 100 ppm to a normal feed for mother sows (crude protein 15.0% or more, crude fat 2.0% or more, crude fiber 5.0% or less, crude ash 8.0% or less, calcium 0.6% or more, phosphorus 0.4% or more, TDN 74.0% or more) in early pregnancy period (test group […]), middle pregnancy period (test group F) or latter pregnancy period (test group G), and were fed only with the normal feed for mother sows in the other periods. A control group was fed only with the normal feed for mother sows throughout the entire pregnancy period. The “early pregnancy” refers to the period from mating until the 38th day, the “middle pregnancy” refers to the period from the 39th day until the 76th day after mating, and the “latter pregnancy” refers to the period (about 38 days) from the 77th day after mating until parturition. Although whether sows are pregnant can be determined by sonography generally on the 25th or 26th day after mating, the test feeding was started without checking whether the mother sows were pregnant in this test. Sows that were found not to be pregnant later were eliminated from the test. Coenzyme Q10 was not administered to the mother sows during lactation and piglets born to the mother sows. Each of control and test groups consisted of five mother sows per test, and the same test was repeated three times. Consequently, 15 sows in total were tested per group. Primiparous sows were not used, and only multiparous sows (para 2 to 10) were used for the test. A coenzyme Q10-containing premix was prepared by adding coenzyme Q10 to defatted rice bran to a concentration of 1/60. This premix was added to the normal feed with a measuring spoon (15 g/spoon) to the above-mentioned coenzyme Q10 concentrations. The feeds thus prepared were fed in a common manner. The amount of the feed fed to each mother sow was 2.5 kg/day in average in all the groups. The mother sows and piglets born to the mother sows were reared in accordance with rearing management standards of the farm. The respective groups were evaluated based on the number of piglets (the number of total births) per mother sow, and the number of living piglets among them (the number of live births), and the number of piglets that survived to weaning (the number of weaned piglets)."}, "mother sows [6]": {"tested_on": "mother sows", "experiment": "Coenzyme Q10 fed to mother sows in middle or late pregnancy, growth of postnatal piglets (Example 3)", "text": "Test groups A to D were fed with feeds prepared by adding coenzyme Q10 at 100 ppm or 400 ppm to a normal feed for mother sows (crude protein 15.0% or more, crude fat 2.0% or more, crude fiber 5.0% or less, crude ash 8.0% or less, calcium 0.6% or more, phosphorus 0.4% or more, TDN 74.0% or more) in middle pregnancy (test groups A and B) or late pregnancy (test groups C and D), and were fed only with the normal feed for mother sows in the other periods. A control group was fed only with the normal feed for mother sows throughout the entire pregnancy period. Here, the term of “middle pregnancy” refers to the period from the 39th day until the 76th day after mating, and the term of “latter pregnancy” refers to the period (about 38 days) from the 77th day after mating until parturition. The test continued for about five and a half months. Also, coenzyme Q10 was not administered to the mother sows during lactation and the piglets born to the mother sows. As for head count of mother sows, each of control and test groups consisted of five mother sows per test, and the same test was repeated three times. Consequently, […]. Primiparous sows were not used, and only multiparous sows (para 2 to 10) were used for the test. A coenzyme Q10-containing premix was prepared by adding coenzyme Q10 to defatted rice bran to be a concentration of 1/60, and was mixed with the normal feed with a measuring spoon (15 g/spoon) to the above-mentioned coenzyme Q10 concentrations. The feeds thus prepared were fed in a common manner. The average amount of the feed per mother sow was 2.5 kg/day in all the groups. The mother sows and the piglets born to the mother sows were reared in accordance with rearing management standards of the farm. The piglets born to the mother sows of the respective groups were evaluated for weight at birth, weight at weaning, and the like."}, "[7]": {"details": "60 ppm in feed, vs periods in which coenzyme Q10 was not administered"}, "[8]": {"details": "piglets born to mother sows fed 60 ppm, vs piglets reared in a conventional manner"}, "[9]": {"details": "early pregnancy, 100 ppm, compared to the control group"}}, "data": [{"smiles": "COC1=C(OC)C(=O)C(C/C=C(\\C)CC/C=C(\\C)CC/C=C(\\C)CC/C=C(\\C)CC/C=C(\\C)CC/C=C(\\C)CC/C=C(\\C)CC/C=C(\\C)CC/C=C(\\C)CCC=C(C)C)=C(C)C1=O", "note": "[coenzyme Q10]", "values": [{"measurement": "coenzyme Q10 content in colostrum", "setting": "[1]", "result": "apparently higher"}, {"measurement": "frequency of albinism", "setting": "mother sows [2]; [7]", "result": "decreased"}, {"measurement": "frequency of mummified", "setting": "mother sows [2]; [7]", "result": "decreased"}, {"measurement": "number of milk-fed piglets", "setting": "mother sows [2]; [7]", "result": "increased"}, {"measurement": "number of total births", "setting": "mother sows [2]; [7]", "result": "increased"}, {"measurement": "number of weaned piglets", "setting": "mother sows [2]; [7]", "result": "increased"}, {"measurement": "body weight of piglets after three weeks from birth", "setting": "mother sows [2]; [8]", "result": "heavier"}, {"measurement": "episodes of diarrhea in piglets", "setting": "mother sows [2]; [8]", "result": "less episodes"}, {"measurement": "number of weaned piglets per mother sow", "setting": "piglets", "result": "larger"}, {"measurement": "fertility of second mating (pregnancy rate)", "setting": "mother sows [3]", "result": 94, "unit": "%"}, {"measurement": "interval of recurrent estrous", "setting": "mother sows [4]; four months", "result": 5.59, "unit": "days"}, {"measurement": "shortening of the interval of recurrent estrous", "setting": "mother sows [4]; test group vs control group", "result": 0.33, "unit": "days"}, {"measurement": "Number of weaned piglets (average per mother sow)", "setting": "mother sows [5]; Test group E: early pregnancy", "result": 10.4}, {"measurement": "Number of weaned piglets (average per mother sow)", "setting": "mother sows [5]; Test group F: middle pregnancy", "result": 9.6}, {"measurement": "Number of weaned piglets (average per mother sow)", "setting": "mother sows [5]; Test group G: late pregnancy", "result": 9.7}, {"measurement": "increase in the average number of weaned piglets per mother sow", "setting": "mother sows [5]; [9]", "result": "not less than 1"}, {"measurement": "increase in the number of live births", "setting": "mother sows [5]; [9]", "result": "not less than 1"}, {"measurement": "increase in the number of total births", "setting": "mother sows [5]; [9]", "result": "not less than 1"}, {"measurement": "Weight at weaning (average, kg)", "setting": "mother sows [6]; Test group A: middle pregnancy, 100 ppm in feed of mother sows", "result": 8.37, "unit": "kg"}, {"measurement": "Weight at weaning (average, kg)", "setting": "mother sows [6]; Test group B: middle pregnancy, 400 ppm in feed of mother sows", "result": 8.26, "unit": "kg"}, {"measurement": "Weight at weaning (average, kg)", "setting": "mother sows [6]; Test group C: late pregnancy, 100 ppm in feed of mother sows", "result": 8.55, "unit": "kg"}, {"measurement": "Weight at weaning (average, kg)", "setting": "mother sows [6]; Test group D: late pregnancy, 400 ppm in feed of mother sows", "result": 8.51, "unit": "kg"}, {"measurement": "weight at birth", "setting": "mother sows [6]; test groups (100 or 400 ppm, middle or late pregnancy) vs control group", "result": "not so different"}]}]}
